The assay concerns the target HSD17B13 (Homo sapiens (Human), UniProt Q7Z5P4). Put plainly: HSD17B13 enzymatic inhibition assay (150 nM or 50 nM HSD17B13). Format: biochemical. The conditions noted are these: 50 nM HSD17B13; read-out: Inhibition of 50 nM of HSD17B13 IC50.

Where only a bound is given, the exact number is not on record here.

HSD17B13, sequence (Q7Z5P4 other isoform, or with tags, fused parts or gaps): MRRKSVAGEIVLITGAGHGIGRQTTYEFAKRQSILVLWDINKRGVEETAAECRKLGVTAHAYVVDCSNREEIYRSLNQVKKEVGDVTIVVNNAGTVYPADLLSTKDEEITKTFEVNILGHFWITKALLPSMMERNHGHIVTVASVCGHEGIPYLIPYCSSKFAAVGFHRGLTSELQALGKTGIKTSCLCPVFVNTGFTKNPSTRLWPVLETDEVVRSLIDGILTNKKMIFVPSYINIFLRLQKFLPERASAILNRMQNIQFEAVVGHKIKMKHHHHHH

By IC50 is commonly meant the concentration needed to halve the response being measured. As for `Cc1ccc(C(NC(=O)c2cc(CCO)c(C(F)(F)F)[nH]c2=O)c2ccc(C)cc2)cc1` [Compound 120, N-(di-p-tolylmethyl)-5-(2-hydroxyethyl)-2-oxo-6-(trifluoromethyl)-1,2-dihydropyridine-3-carboxamide], the IC50 turned out to be 870 nM.
Regarding `C=CCc1cc(C(=O)NC(c2ccc(C)cc2)c2ccc(C)cc2)c(=O)[nH]c1C(F)(F)F` [Compound 121, 5-allyl-N-(di-p-tolylmethyl)-2-oxo-6-(trifluoromethyl)-1,2-dihydropyridine-3-carboxamide], the half-inhibitory concentration (IC50) is 220 nM.
In the case of `Cc1ccc(C(NC(=O)c2c(C(F)(F)F)cc[nH]c2=O)c2ccc(C)cc2)cc1` [Compound 122, N-(di-p-tolylmethyl)-2-oxo-4-(trifluoromethyl)-1,2-dihydropyridine-3-carboxamide] it was above 10000 nM; in that of `Cc1cc(C(F)(F)F)[nH]c(=O)c1C(=O)NC(c1ccccc1)c1ccccc1` [Compound 123, N-benzhydryl-4-methyl-2-oxo-6-(trifluoromethyl)-1,2-dihydropyridine-3-carboxamide], 5790 nM; in that of `Cc1cc(C(F)(F)F)[nH]c(=O)c1C(=O)NC(c1ccccc1)c1ccc(Cl)cc1` (stereo not drawn) [Compound 124, N-((4-chlorophenyl)(phenyl)methyl)-4-methyl-2-oxo-6-(trifluoromethyl)-1,2-dihydropyridine-3-carboxamide], 1400 nM.
With `Cc1cc(C(F)(F)F)[nH]c(=O)c1C(=O)NC(c1ccccc1)c1ccc(CC(F)(F)F)cc1` (stereo not drawn) [Compound 125, 4-methyl-2-oxo-N-(phenyl(4-(2,2,2-trifluoroethyl)phenyl)methyl)-6-(trifluoromethyl)-1,2-dihydropyridine-3-carboxamide] the figure was 960 nM; with `Cc1ccc(C(NC(=O)c2c(C)cc(C(F)(F)F)[nH]c2=O)c2ccccc2)cc1` (stereo not drawn) [Compound 126, 4-methyl-2-oxo-N-(phenyl(p-tolyl)methyl)-6-(trifluoromethyl)-1,2-dihydropyridine-3-carboxamide], 1750 nM; with `O=C(NC1CCSc2ccccc21)c1ccc(C(F)(F)F)[nH]c1=O` (stereo not drawn) [Compound 127, 2-oxo-N-(thiochroman-4-yl)-6-(trifluoromethyl)-1,2-dihydropyridine-3-carboxamide], 3750 nM.
With `O=C(NC1CCOc2ccccc21)c1ccc(C(F)(F)F)[nH]c1=O` (stereo not drawn) [Compound 128, N-(chroman-4-yl)-2-oxo-6-(trifluoromethyl)-1,2-dihydropyridine-3-carboxamide] the figure was 5690 nM; with `CC1CC(NC(=O)c2ccc(C(F)(F)F)[nH]c2=O)c2ccccc2O1` (stereo not drawn) [Compound 129, N-(2-methylchroman-4-yl)-2-oxo-6-(trifluoromethyl)-1,2-dihydropyridine-3-carboxamide], 4330 nM.
As for `O=C(NC1CCNc2ccccc21)c1ccc(C(F)(F)F)[nH]c1=O` (stereo not drawn) [Compound 130, 2-oxo-N-(1,2,3,4-tetrahydroquinolin-4-yl)-6-(trifluoromethyl)-1,2-dihydropyridine-3-carboxamide], the concentration for half-maximal inhibition (IC50) is above 10000 nM.
`O=C(NC1CCc2cc(Cl)ccc21)c1ccc(C(F)(F)F)[nH]c1=O` (stereo not drawn) [Compound 131, N-(5-chloro-2,3-dihydro-1H-inden-1-yl)-2-oxo-6-(trifluoromethyl)-1,2-dihydropyridine-3-carboxamide]: the IC50 came out at 1820 nM.
`O=C(NC1CCCc2ccccc21)c1ccc(C(F)(F)F)[nH]c1=O` (stereo not drawn) [Compound 132, 2-oxo-N-(1,2,3,4-tetrahydronaphthalen-1-yl)-6-(trifluoromethyl)-1,2-dihydropyridine-3-carboxamide]: the 50% inhibitory concentration (IC50) came to 1450 nM.
Regarding `Cc1ccc2c(c1)CCC2NC(=O)c1ccc(C(F)(F)F)[nH]c1=O` (stereo not drawn) [Compound 133, N-(5-methyl-2,3-dihydro-1H-inden-1-yl)-2-oxo-6-(trifluoromethyl)-1,2-dihydropyridine-3-carboxamide], the IC50 worked out at 1450 nM.
With `O=C(NC1CCc2cc(O)ccc21)c1ccc(C(F)(F)F)[nH]c1=O` (stereo not drawn) [Compound 135, N-(5-hydroxy-2,3-dihydro-1H-inden-1-yl)-2-oxo-6-(trifluoromethyl)-1,2-dihydropyridine-3-carboxamide] the figure was 1910 nM.
With `O=C(NC1CCc2c(O)cccc21)c1ccc(C(F)(F)F)[nH]c1=O` (stereo not drawn) [Compound 136, N-(4-hydroxy-2,3-dihydro-1H-inden-1-yl)-2-oxo-6-(trifluoromethyl)-1,2-dihydropyridine-3-carboxamide] the figure was 1130 nM; with `O=C(NC1c2ccccc2COc2ccccc21)c1ccc(C(F)(F)F)[nH]c1=O` (stereo not drawn) [Compound 137, N-(6,11-dihydrodibenzo[b,e]oxepin-11-yl)-2-oxo-6-(trifluoromethyl)-1,2-dihydropyridine-3-carboxamide], 4190 nM.
In the case of `C=Cc1ccc2c(c1)Oc1cccc(C=C)c1C2NC(=O)c1ccc(C(F)(F)F)[nH]c1=O` (stereo not drawn) [Compound 139, N-(1,6-divinyl-9H-xanthen-9-yl)-2-oxo-6-(trifluoromethyl)-1,2-dihydropyridine-3-carboxamide] it was 510 nM; in that of `CCc1ccc2c(c1)Oc1cccc(CC)c1C2NC(=O)c1ccc(C(F)(F)F)[nH]c1=O` (stereo not drawn) [Compound 142, N-(1,6-diethyl-9H-xanthen-9-yl)-2-oxo-6-(trifluoromethyl)-1,2-dihydropyridine-3-carboxamide], 540 nM; in that of `CCc1ccc2c(c1)Oc1cc(CC)ccc1C2NC(=O)c1ccc(C(F)(F)F)[nH]c1=O` [Compound 143, N-(3,6-diethyl-9H-xanthen-9-yl)-2-oxo-6-(trifluoromethyl)-1,2-dihydropyridine-3-carboxamide], 90 nM.
With `O=C(NC1c2ccc(CC(F)(F)F)cc2Oc2cc(CC(F)(F)F)ccc21)c1ccc(C(F)(F)F)[nH]c1=O` [Compound 144, N-(3,6-bis(2,2,2-trifluoroethyl)-9H-xanthen-9-yl)-2-oxo-6-(trifluoromethyl)-1,2-dihydropyridine-3-carboxamide], the half-maximal inhibitory concentration (IC50) was 310 nM.
In the case of `O=C(NC1c2ccc(C3CC3)cc2Oc2cc(C3CC3)ccc21)c1ccc(C(F)(F)F)[nH]c1=O` [Compound 145, N-(3,6-dicyclopropyl-9H-xanthen-9-yl)-2-oxo-6-(trifluoromethyl)-1,2-dihydropyridine-3-carboxamide] it was 210 nM; in that of `Cc1ccc2c(c1)Oc1cccc(C)c1C2NC(=O)c1ccc(C)[nH]c1=O` (stereo not drawn) [Compound 147, N-(1,6-dimethyl-9H-xanthen-9-yl)-6-methyl-2-oxo-1,2-dihydropyridine-3-carboxamide], above 10000 nM; in that of `Cc1ccc2c(c1)C(NC(=O)c1ccc(C(F)(F)F)[nH]c1=O)c1ccccc1O2` (stereo not drawn) [Compound 148, N-(2-methyl-9H-xanthen-9-yl)-2-oxo-6-(trifluoromethyl)-1,2-dihydropyridine-3-carboxamide], 670 nM.
For the compound `Cc1ccc2c(c1)Oc1cc(C)ccc1C2NC(=O)c1ccc(C)[nH]c1=O` [Compound 149, N-(3,6-dimethyl-9H-xanthen-9-yl)-6-methyl-2-oxo-1,2-dihydropyridine-3-carboxamide], the 50% inhibitory concentration (IC50) was above 10000 nM.
In the case of `O=C(NC1c2ccccc2Oc2ccc(F)cc21)c1ccc(C(F)(F)F)[nH]c1=O` (stereo not drawn) [Compound 150, N-(2-fluoro-9H-xanthen-9-yl)-2-oxo-6-(trifluoromethyl)-1,2-dihydropyridine-3-carboxamide] it was 400 nM; in that of `O=C(NC1c2ccccc2Oc2cc(C3CCC3)ccc21)c1ccc(C(F)(F)F)[nH]c1=O` (stereo not drawn) [Compound 151, N-(3-cyclobutyl-9H-xanthen-9-yl)-2-oxo-6-(trifluoromethyl)-1,2-dihydropyridine-3-carboxamide], 290 nM; in that of `O=C(NC1c2ccccc2Oc2c(Cl)cccc21)c1ccc(C(F)(F)F)[nH]c1=O` (stereo not drawn) [Compound 152, N-(4-chloro-9H-xanthen-9-yl)-2-oxo-6-(trifluoromethyl)-1,2-dihydropyridine-3-carboxamide], 1030 nM.
In the case of `O=C(NC1c2cc(Cl)ccc2Oc2ccc(Cl)cc21)c1ccc(C(F)(F)F)[nH]c1=O` [Compound 153, N-(2,7-dichloro-9H-xanthen-9-yl)-2-oxo-6-(trifluoromethyl)-1,2-dihydropyridine-3-carboxamide], the half-maximal inhibitory concentration (IC50) was 1790 nM.
With `N#Cc1ccc2c(c1)C(NC(=O)c1ccc(C(F)(F)F)[nH]c1=O)c1ccccc1O2` (stereo not drawn) [Compound 154, N-(2-cyano-9H-xanthen-9-yl)-2-oxo-6-(trifluoromethyl)-1,2-dihydropyridine-3-carboxamide] the figure was 650 nM; with `C=Cc1ccc2c(c1)C(NC(=O)c1ccc(C(F)(F)F)[nH]c1=O)c1ccccc1O2` (stereo not drawn) [Compound 155, 2-oxo-6-(trifluoromethyl)-N-(2-vinyl-9H-xanthen-9-yl)-1,2-dihydropyridine-3-carboxamide], 460 nM.
In the case of `O=C(NC1c2ccccc2Oc2cccc(F)c21)c1ccc(C(F)(F)F)[nH]c1=O` (stereo not drawn) [Compound 156, N-(1-fluoro-9H-xanthen-9-yl)-2-oxo-6-(trifluoromethyl)-1,2-dihydropyridine-3-carboxamide] it was 260 nM; in that of `Cc1cccc2c1C(NC(=O)c1ccc(C(F)(F)F)[nH]c1=O)c1ccccc1O2` (stereo not drawn) [Compound 157, N-(1-methyl-9H-xanthen-9-yl)-2-oxo-6-(trifluoromethyl)-1,2-dihydropyridine-3-carboxamide], 850 nM; in that of `Cc1ccc2c(c1)C(NC(=O)c1ccc(C(F)(F)F)[nH]c1=O)c1cc(C)ccc1O2` [Compound 158, N-(2,7-dimethyl-9H-xanthen-9-yl)-2-oxo-6-(trifluoromethyl)-1,2-dihydropyridine-3-carboxamide], 360 nM.
As to `O=C(NC1c2ccccc2Oc2cccc(Cl)c21)c1ccc(C(F)(F)F)[nH]c1=O` (stereo not drawn) [Compound 159, N-(1-chloro-9H-xanthen-9-yl)-2-oxo-6-(trifluoromethyl)-1,2-dihydropyridine-3-carboxamide], the IC50 is 600 nM.
With `CCc1ccc2c(c1)C(NC(=O)c1ccc(C(F)(F)F)[nH]c1=O)c1ccccc1O2` (stereo not drawn) [Compound 160, N-(2-ethyl-9H-xanthen-9-yl)-2-oxo-6-(trifluoromethyl)-1,2-dihydropyridine-3-carboxamide] the figure was 180 nM.

These data come from US11957687B2 (REGENERON PHARMACEUTICALS, INC., priority 2019, dated 2024).
